We go through 4 compounds from patent US4594357A, “Depot antiinflammatory agents” (Troponwerke GmbH & Co., priority 1983, dated 1986).

For data set [1], the system named is oedema of the rat paw induced by carrageenan. In words: carrageenan-induced rat paw oedema (oedema inhibition). It is filed as in vivo, rat (male, strain Bor: WISW (SPF-Cpb)). Conditions: for Oedema inhibition: rat; for % Inhibition after depot acid: i.m. 15 mg/kg as an oily solution. On the procedure: The oedema-inhibiting and analgesic action of the test substances following intramuscular administration of an appropriate depot formulation was determined with the aid of oedema of the rat paw induced by carrageenan or by means of the Randall-Selitto test [Arch. int. Pharmacodyn. 111, 409 (1957)].
The experiments were carried out on male rats [strain: Bor: WISW (SPF-Cpb), weight about 200 g]. A depot product was administered once intramuscularly to the animals and the antiinflammatory action on the following days was tested by inducing carrageenan oedema. In each case three groups or 5 animals each were investigated per day, the first group consisting of 5 untreated animals, the 2nd group of 5 animals treated only with solvent (for example viscoleo) and the 3rd group of 5 animals treated with depot product (for example 2-(2-hydroxyethoxy)-ethyl-N(α,α,α-trifluoro-m-tolyl)anthranilate (formula 11) in viscoleo).
The paw volumes were measured by the method of F. Kemper and G. Ameln [Z. ges. exp. Med. 131, 407 (1959)], the difference between the paw volumes 5 hours after oedema provocation and the normal paw volume giving the oedema volume. The analgesic action was determined via pressure pain [Randall-Selitto, see above].
The inhibition of the carrageenan oedema following intramuscular administration of 2-(2-hydroxyethoxy)-ethyl N-(α,α,α-trifluoro-m-tolyl)-anthranilate (formula 11) in viscoleo after various doses in a constant administration volume of 0.03 ml (rat) is as follows: […]
In general terms: In the carrageenan paw model, swelling and tenderness develop within hours.

The test system is the same in data set [2]. Conditions: carrageenan model, cited from earlier work.
Data set [3] in a line: half-life for elimination from the tissue (site of administration). The data set is classed as in vivo. Conditions: tissue at administration site, im; rat, i.m. administration in oily solution; read-out: HL for elimination from the tissue (site of administration) (converted). The procedure:
(§1) It was possible to determine the biological half-life (HL) of the compound 11 in rats from the inflamed tissue by means of gas chromatography [H.-D. Dell, J. Fielder, H. Jacobi and J. Kolle, Arzneim.-Forsch./Drug.Res 31, 17-21 (1981)]. The HL from the tissue is about 8.5 hours. In contrast, an HL of 1.29 days is determined for elimination from the tissue (site of administration) following intramuscular administration of 11 in oily solution.

Data set [4] in a line: biological half-life from the inflamed tissue by gas chromatography. It is filed as in vivo. Conditions: rat, read-out: biological half-life (HL) from the inflamed tissue (converted). The procedure: as §1

Regarding `O=C(OCCOCCO)c1ccccc1Nc1cccc(C(F)(F)F)c1` [formula 11, 2-(2-hydroxyethoxy)-ethyl N-(α,α,α-trifluoro-m-tolyl)-anthranilate], the Oedema inhibition stood at 64.0% in data set [1] (10.5 mg/kg, single i.m., in viscoleo, 1 day after injection); 61.1% in data set [1] (10.5 mg/kg, single i.m., in viscoleo, 2 days after injection); 36.6% in data set [1] (10.5 mg/kg, single i.m., in viscoleo, 3 days after injection); 41.6% in data set [1] (10.5 mg/kg, single i.m., in viscoleo, 4 days after injection); 77.6% in data set [1] (15 mg/kg, single i.m., in viscoleo, 1 day after injection); 72.2% in data set [1] (15 mg/kg, single i.m., in viscoleo, 2 days after injection). The Oedema inhibition in data set [1] (15 mg/kg, single i.m., in viscoleo, 3 days after injection) came to 55.5%; in data set [1] (15 mg/kg, single i.m., in viscoleo, 4 days after injection) it was 51.3%; in data set [1] (19.5 mg/kg, single i.m., in viscoleo, 1 day after injection), 77.6%; in data set [1] (19.5 mg/kg, single i.m., in viscoleo, 2 days after injection), 81.3%; in data set [1] (19.5 mg/kg, single i.m., in viscoleo, 3 days after injection) it was 61.6%; in data set [1] (19.5 mg/kg, single i.m., in viscoleo, 4 days after injection), 52.1%. Also, the “duration of oedema inhibition after peroral administration” value in data set [2] (about 24 hours) was “corresponds to the control value after about 24 hours”. For the same compound, the “oedema inhibition after peroral administration” value in data set [2] is given as “powerful oedema inhibition”. Also, the half-life in data set [3] was 31 h; in data set [4], about 8.5 h.

On to `CCCCOC(=O)c1ccccc1Nc1cccc(C(F)(F)F)c1` [formula 13, butyl N-(α,α,α-trifluoro-m-tolyl)-anthranilate], for which the Oedema inhibition is 53.8% in data set [1] (formula 13 in viscoleo, single i.m. 15 mg/kg, 1 day after administration); 46.5% in data set [1] (formula 13 in viscoleo, single i.m. 15 mg/kg, 2 days after administration); 34.3% in data set [1] (formula 13 in viscoleo, single i.m. 15 mg/kg, 3 days after administration); 37.1% in data set [1] (formula 13 in viscoleo, single i.m. 15 mg/kg, 4 days after administration); 28.8% in data set [1] (formula 13 in viscoleo, single i.m. 15 mg/kg, 5 days after administration).

For `O=C(O)c1ccccc1Nc1cccc(C(F)(F)F)c1` [formula 1, N--(α,α,α-Trifluoro-m-tolyl)-anthranilic acid], the “% Inhibition after depot acid” value in data set [1] (1 day after injection) came to 53.8%; in data set [1] (2 days after injection), 46.5%; in data set [1] (3 days after injection), 34.3%; in data set [1] (4 days after injection), 37.1%; in data set [1] (5 days after injection), 26.8%.

As for `O=C(O)c1cccnc1Nc1cccc(C(F)(F)F)c1` [formula 6, 2-(α,α,α-Trifluoro-m-toluidino)-nicotinic acid], the “% Inhibition after depot acid” value is 57.0% in data set [1] (1 day after injection), 35.2% in data set [1] (2 days after injection), 35.5% in data set [1] (3 days after injection) and 11.5% in data set [1] (4 days after injection).
